Results reported in the NIST ThermoML archive (doi:10.1016/j.jct.2016.07.005).
± gives the expanded uncertainty stated by the source.

Assay: refractive index (Na D-line) (dimensionless); xn = mol fraction of the nth substance listed
Settings: 100 kPa, Liquid, Standard Abbe refractometry

CN1CCC[C@H]1c1cccnc1 [(-)-3-(N-methylpyrrolidino)pyridine] + CC(O)CO
refractive index
Settings	x1 = 0.1	x1 = 0.2009	x1 = 0.3	x1 = 0.4016	x1 = 0.5	x1 = 0.6005	x1 = 0.7	x1 = 0.7983	x1 = 0.9	x1 = 1
293.15 K	1.45151 ± 0.00037	1.46746 ± 0.00037	1.48003 ± 0.00037	1.4907 ± 0.00037	1.49923 ± 0.00038	1.50631 ± 0.00038	1.51219 ± 0.00039	1.51744 ± 0.00039	1.52199 ± 0.0004	1.52665 ± 0.0004
298.15 K	1.44969 ± 0.00037	1.4656 ± 0.00037	1.47804 ± 0.00037	1.48864 ± 0.00037	1.49711 ± 0.00038	1.50413 ± 0.00038	1.50997 ± 0.00039	1.5152 ± 0.00039	1.51971 ± 0.0004	1.52439 ± 0.0004
303.15 K	1.448 ± 0.00037	1.46377 ± 0.00037	1.47612 ± 0.00037	1.48662 ± 0.00037	1.49496 ± 0.00038	1.50195 ± 0.00038	1.50774 ± 0.00039	1.51296 ± 0.00039	1.51749 ± 0.0004	1.52214 ± 0.0004
308.15 K	1.44622 ± 0.00037	1.46193 ± 0.00037	1.47424 ± 0.00037	1.48462 ± 0.00037	1.49301 ± 0.00038	1.49987 ± 0.00038	1.50568 ± 0.00039	1.51076 ± 0.00039	1.5153 ± 0.0004	1.51988 ± 0.0004
313.15 K	1.44441 ± 0.00037	1.46029 ± 0.00037	1.4723 ± 0.00037	1.48255 ± 0.00037	1.49092 ± 0.00038	1.49774 ± 0.00038	1.50345 ± 0.00039	1.5087 ± 0.00039	1.51312 ± 0.0004	1.5179 ± 0.0004
318.15 K	1.44265 ± 0.00037	1.45843 ± 0.00037	1.47031 ± 0.00037	1.48043 ± 0.00037	1.48871 ± 0.00038	1.49555 ± 0.00038	1.50118 ± 0.00039	1.50651 ± 0.00039	1.511 ± 0.0004	1.51592 ± 0.0004
323.15 K	1.44081 ± 0.00037	1.45653 ± 0.00037	1.46833 ± 0.00037	1.47837 ± 0.00037	1.48665 ± 0.00038	1.49341 ± 0.00038	1.49904 ± 0.00039	1.50435 ± 0.00039	1.50881 ± 0.0004	1.51373 ± 0.0004

CN1CCC[C@H]1c1cccnc1 [(-)-3-(N-methylpyrrolidino)pyridine] + CCC(C)O
refractive index
Settings	x1 = 0.1	x1 = 0.2036	x1 = 0.3	x1 = 0.4	x1 = 0.5	x1 = 0.6	x1 = 0.6956	x1 = 0.8	x1 = 0.9	x1 = 1
293.15 K	1.41889 ± 0.00037	1.43839 ± 0.00037	1.4542 ± 0.00037	1.46843 ± 0.00037	1.48084 ± 0.00038	1.49173 ± 0.00038	1.50103 ± 0.00039	1.51029 ± 0.00039	1.51858 ± 0.0004	1.52665 ± 0.0004
298.15 K	1.41668 ± 0.00037	1.43618 ± 0.00037	1.45199 ± 0.00037	1.46621 ± 0.00037	1.47864 ± 0.00038	1.48952 ± 0.00038	1.4988 ± 0.00039	1.50803 ± 0.00039	1.51632 ± 0.0004	1.52439 ± 0.0004
303.15 K	1.41438 ± 0.00037	1.43393 ± 0.00037	1.44972 ± 0.00037	1.46397 ± 0.00037	1.47644 ± 0.00038	1.48735 ± 0.00038	1.49664 ± 0.00039	1.50585 ± 0.00039	1.5141 ± 0.0004	1.52214 ± 0.0004
308.15 K	1.41211 ± 0.00037	1.43166 ± 0.00037	1.44747 ± 0.00037	1.46172 ± 0.00037	1.4742 ± 0.00038	1.48511 ± 0.00038	1.49439 ± 0.00039	1.50359 ± 0.00039	1.51184 ± 0.0004	1.51988 ± 0.0004
313.15 K	1.40979 ± 0.00037	1.42936 ± 0.00037	1.44519 ± 0.00037	1.45945 ± 0.00037	1.47192 ± 0.00038	1.48284 ± 0.00038	1.49217 ± 0.00039	1.50145 ± 0.00039	1.50978 ± 0.0004	1.5179 ± 0.0004
318.15 K	1.40753 ± 0.00037	1.4271 ± 0.00037	1.44297 ± 0.00037	1.45725 ± 0.00037	1.46971 ± 0.00038	1.48065 ± 0.00038	1.49001 ± 0.00039	1.49933 ± 0.00039	1.50772 ± 0.0004	1.51592 ± 0.0004
323.15 K	1.40509 ± 0.00037	1.42476 ± 0.00037	1.44065 ± 0.00037	1.45496 ± 0.00037	1.46747 ± 0.00038	1.47843 ± 0.00038	1.48779 ± 0.00039	1.49711 ± 0.00039	1.5055 ± 0.0004	1.51373 ± 0.0004

CN1CCC[C@H]1c1cccnc1 [(-)-3-(N-methylpyrrolidino)pyridine] + CCCCO
refractive index
Settings	x1 = 0.1	x1 = 0.196	x1 = 0.3	x1 = 0.3931	x1 = 0.5	x1 = 0.593	x1 = 0.7	x1 = 0.7931	x1 = 0.9	x1 = 1
293.15 K	1.42126 ± 0.00037	1.44053 ± 0.00037	1.45673 ± 0.00037	1.46978 ± 0.00037	1.48302 ± 0.00038	1.49254 ± 0.00038	1.50289 ± 0.00039	1.51169 ± 0.00039	1.51909 ± 0.0004	1.52665 ± 0.0004
298.15 K	1.41913 ± 0.00037	1.43825 ± 0.00037	1.45448 ± 0.00037	1.46759 ± 0.00037	1.48076 ± 0.00038	1.49031 ± 0.00038	1.50065 ± 0.00039	1.50945 ± 0.00039	1.51685 ± 0.0004	1.52439 ± 0.0004
303.15 K	1.41697 ± 0.00037	1.43598 ± 0.00037	1.45225 ± 0.00037	1.46538 ± 0.00037	1.47856 ± 0.00038	1.48808 ± 0.00038	1.49847 ± 0.00039	1.50721 ± 0.00039	1.51463 ± 0.0004	1.52214 ± 0.0004
308.15 K	1.41481 ± 0.00037	1.43367 ± 0.00037	1.45 ± 0.00037	1.46318 ± 0.00037	1.4763 ± 0.00038	1.48583 ± 0.00038	1.49623 ± 0.00039	1.50495 ± 0.00039	1.51238 ± 0.0004	1.51988 ± 0.0004
313.15 K	1.4127 ± 0.00037	1.43148 ± 0.00037	1.44779 ± 0.00037	1.46096 ± 0.00037	1.47404 ± 0.00038	1.48355 ± 0.00038	1.49404 ± 0.00039	1.5028 ± 0.00039	1.51035 ± 0.0004	1.5179 ± 0.0004
318.15 K	1.41058 ± 0.00037	1.42931 ± 0.00037	1.44562 ± 0.00037	1.45876 ± 0.00037	1.47184 ± 0.00038	1.48131 ± 0.00038	1.49183 ± 0.00039	1.50058 ± 0.00039	1.50823 ± 0.0004	1.51592 ± 0.0004
323.15 K	1.40842 ± 0.00037	1.42705 ± 0.00037	1.44337 ± 0.00037	1.45655 ± 0.00037	1.46958 ± 0.00038	1.47906 ± 0.00038	1.48961 ± 0.00039	1.49837 ± 0.00039	1.50604 ± 0.0004	1.51373 ± 0.0004

CN1CCC[C@H]1c1cccnc1 [(-)-3-(N-methylpyrrolidino)pyridine] + OCCCO
refractive index
Settings	x1 = 0.1	x1 = 0.1999	x1 = 0.3	x1 = 0.3994	x1 = 0.5	x1 = 0.6004	x1 = 0.7	x1 = 0.8	x1 = 0.9	x1 = 1
293.15 K	1.45763 ± 0.00052	1.47282 ± 0.0005	1.48522 ± 0.00049	1.49551 ± 0.00047	1.50314 ± 0.00046	1.50913 ± 0.00045	1.51461 ± 0.00043	1.51947 ± 0.00042	1.5228 ± 0.00041	1.52665 ± 0.0004
298.15 K	1.4561 ± 0.00052	1.47118 ± 0.0005	1.4835 ± 0.00049	1.49364 ± 0.00047	1.50131 ± 0.00046	1.50702 ± 0.00045	1.51264 ± 0.00043	1.51729 ± 0.00042	1.52064 ± 0.00041	1.52439 ± 0.0004
303.15 K	1.45463 ± 0.00052	1.46959 ± 0.0005	1.48179 ± 0.00049	1.49178 ± 0.00047	1.49939 ± 0.00046	1.5052 ± 0.00045	1.51056 ± 0.00043	1.51508 ± 0.00042	1.51845 ± 0.00041	1.52214 ± 0.0004
308.15 K	1.45312 ± 0.00052	1.46793 ± 0.0005	1.48 ± 0.00049	1.48991 ± 0.00047	1.49739 ± 0.00046	1.50305 ± 0.00045	1.50843 ± 0.00043	1.51294 ± 0.00042	1.51623 ± 0.00041	1.51988 ± 0.0004
313.15 K	1.45171 ± 0.00052	1.46637 ± 0.0005	1.47831 ± 0.00049	1.48799 ± 0.00047	1.49571 ± 0.00046	1.50113 ± 0.00045	1.50703 ± 0.00043	1.51089 ± 0.00042	1.51476 ± 0.00041	1.5179 ± 0.0004
318.15 K	1.45006 ± 0.00052	1.46458 ± 0.0005	1.4764 ± 0.00049	1.48604 ± 0.00047	1.49341 ± 0.00046	1.49907 ± 0.00045	1.50429 ± 0.00043	1.50872 ± 0.00042	1.51216 ± 0.00041	1.51592 ± 0.0004
323.15 K	1.44849 ± 0.00052	1.46287 ± 0.0005	1.4746 ± 0.00049	1.48415 ± 0.00047	1.49147 ± 0.00046	1.49703 ± 0.00045	1.50221 ± 0.00043	1.5066 ± 0.00042	1.50996 ± 0.00041	1.51373 ± 0.0004
